Data as given in patent publication US6818663B2, “Diaminothiazoles” (Hoffmann-La Roches, priority 2002, dated 2004).

Legend:
human cyclin B-CDK1 = human cyclin B-CDK1 (Homo sapiens, UniProt P06493); assay: FlashPlate kinase assay, cyclin B-CDK1, Rb substrate; format: biochemical; conditions: recombinant cyclin B-CDK1, Rb phosphorylation, 1 μM ATP
Procedure, shortened: (§1)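 Recombinant human cyclin–CDK complexes, co-expressed in insect cells, phosphorylated His-tagged Rb (aa 386-928) coated on FlashPlates at 10 μg/ml. Reaction used 1 μM ATP plus 4 nM ^33P-ATP and 20 mM MgCl2 for 30 min at room temperature. % inhibition came from scintillation counts against no-enzyme and no-compound wells, and IC50 was the concentration halving radiolabel incorporation.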

human cyclin E-CDK2 = human cyclin E-CDK2 (Homo sapiens, UniProt P24941); assay: FlashPlate kinase assay, cyclin E-CDK2, Rb substrate; format: biochemical; conditions: recombinant cyclin E-CDK2, Rb phosphorylation, 1 μM ATP
Procedure, shortened: as §1

human cyclin D1-CDK4 = human cyclin D1-CDK4 (Homo sapiens, UniProt P11802); assay: FlashPlate kinase assay, cyclin D1-CDK4, Rb substrate; format: biochemical; conditions: recombinant cyclin D1-CDK4, Rb phosphorylation, 1 μM ATP
Chain of human cyclin D1-CDK4 (P11802 whole entry): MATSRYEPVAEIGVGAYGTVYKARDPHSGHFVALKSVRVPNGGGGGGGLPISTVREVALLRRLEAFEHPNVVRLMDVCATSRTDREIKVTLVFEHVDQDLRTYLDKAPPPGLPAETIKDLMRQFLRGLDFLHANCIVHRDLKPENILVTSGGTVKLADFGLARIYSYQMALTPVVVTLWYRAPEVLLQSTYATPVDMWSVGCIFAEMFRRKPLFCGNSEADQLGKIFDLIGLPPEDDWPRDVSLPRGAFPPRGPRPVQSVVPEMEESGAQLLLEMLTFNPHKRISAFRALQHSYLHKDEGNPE
Chain of human cyclin D1-CDK4 (P24385 whole entry partner): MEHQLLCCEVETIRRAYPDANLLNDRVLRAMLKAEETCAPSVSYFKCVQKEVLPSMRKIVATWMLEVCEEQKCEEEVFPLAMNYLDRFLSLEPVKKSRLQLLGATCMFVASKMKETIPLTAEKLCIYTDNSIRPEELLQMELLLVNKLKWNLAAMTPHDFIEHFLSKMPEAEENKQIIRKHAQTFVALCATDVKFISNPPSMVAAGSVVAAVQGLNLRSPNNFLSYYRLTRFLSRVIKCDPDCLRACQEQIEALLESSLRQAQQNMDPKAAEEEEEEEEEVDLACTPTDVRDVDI
Procedure, shortened: as §1

[1] = test system: HCT116, a colorectal carcinoma cell line; assay: Tetrazolium dye proliferation assay (MTT assay); format: cell-based; conditions: Homo sapiens, HCT-116, HCT116 cells, inhibition of cell proliferation
Procedure, shortened: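 HCT116 cells in McCoy's 5A + 10% FCS, plated overnight, then dosed in duplicate with serial dilutions (final DMSO 0.3%) and incubated to growth-curve time points. MTT at 1 mg/ml for 2.5-3 h, formazan in ethanol, A570/650. IC50 by linear regression of log concentration vs % inhibition relative to blank and DMSO controls.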

Chain of human cyclin B-CDK1 (P06493 whole entry, the tested form may be a part): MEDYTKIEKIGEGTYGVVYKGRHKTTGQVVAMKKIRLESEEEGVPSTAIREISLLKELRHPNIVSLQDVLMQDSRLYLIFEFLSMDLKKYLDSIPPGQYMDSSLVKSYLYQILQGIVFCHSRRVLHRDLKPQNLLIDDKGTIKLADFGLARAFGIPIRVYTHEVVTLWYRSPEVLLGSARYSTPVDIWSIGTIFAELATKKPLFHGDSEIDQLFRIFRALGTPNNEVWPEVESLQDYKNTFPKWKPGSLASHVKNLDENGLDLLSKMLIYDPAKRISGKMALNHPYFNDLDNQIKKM
Chain of human cyclin B-CDK1 (P14635 whole entry partner, the tested form may be a part): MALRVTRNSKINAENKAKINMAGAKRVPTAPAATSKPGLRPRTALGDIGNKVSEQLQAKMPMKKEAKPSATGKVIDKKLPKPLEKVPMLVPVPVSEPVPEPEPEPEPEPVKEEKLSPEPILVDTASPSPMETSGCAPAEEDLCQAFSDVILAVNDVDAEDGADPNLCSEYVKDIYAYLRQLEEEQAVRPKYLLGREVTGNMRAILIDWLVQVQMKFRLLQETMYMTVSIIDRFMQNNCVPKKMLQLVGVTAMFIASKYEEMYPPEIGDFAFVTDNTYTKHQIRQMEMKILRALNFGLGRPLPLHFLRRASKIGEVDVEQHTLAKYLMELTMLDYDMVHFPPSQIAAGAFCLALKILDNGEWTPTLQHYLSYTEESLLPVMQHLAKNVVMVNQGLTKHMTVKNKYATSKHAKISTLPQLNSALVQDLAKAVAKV

| Compound | IC50 (human cyclin B-CDK1) | IC50 (human cyclin E-CDK2) | IC50 (human cyclin D1-CDK4) | melting point | IC50 [1] |
| --- | --- | --- | --- | --- | --- |
| COc1cccc(C(=O)c2sc(Nc3ccc(OCCN(C)C)cc3)nc2N)c1 [Example 144, [4-Amino-2-[4-(2-dimethylaminoethoxy)-phenylamino]-thiazol-5-yl]-(3-methoxy-phenyl)-methanone] | 2490 nM | 4540 nM | 87 nM | 130 °C (dec.) |  |
| CCN(CC)CCOc1ccc(Nc2nc(N)c(C(=O)c3cccc(OC)c3)s2)cc1 [Example 145, [4-Amino-2-[4-(2-diethylaminoethoxy)-phenylamino]-thiazol-5-yl]-(3-methoxy-phenyl)-methanone] | 219 nM | 900 nM | 41 nM | 118 to 123 °C |  |
| CCNCCOc1ccc(Nc2nc(N)c(C(=O)c3ccc(C)c(F)c3)s2)cc1 [Example 103, [4-Amino-2-[4-(2-ethylamino-ethoxy)-phenylamino]-thiazol-5-yl]-(3-fluoro-4-methyl-phenyl)-methanone; Compound With Acetic Acid] | 432 nM | 1760 nM | 41 nM |  | 1430 nM |
| CCN1CCCC(Oc2ccc(Nc3nc(N)c(C(=O)c4cccc(F)c4)s3)cc2)C1 (centres unmarked) [Example 43, [4-Amino-2-[4-(1-ethyl-piperidin-3-yloxy)-phenylamino]-thiazol-5-yl]-(3-fluoro-phenyl)-methanone] | 700 nM | 1150 nM | 59 nM |  | 760 nM |
| CCNCCOc1ccc(Nc2nc(N)c(C(=O)c3cccc(C4CC4)c3)s2)cc1 [Example 102, [4-Amino-2-[4-(2-ethylamino-ethoxy)-phenylamino]-thiazol-5-yl]-(3-cyclopropyl-phenyl)-methanone; Compound With Acetic Acid] | 883 nM | 1690 nM | 26 nM |  | 738 nM |
| CCNCCOc1ccc(Nc2nc(N)c(C(=O)c3ccc(F)c(CC)c3)s2)cc1 [Example 104, [4-Amino-2-[4-(2-ethylamino-ethoxy)-phenylamino]-thiazol-5-yl]-(3-ethyl-4-fluoro-phenyl)-methanone; Compound With Acetic Acid] | 3510 nM | 3310 nM | 52 nM |  | 2450 nM |
| CCc1cccc(C(=O)c2sc(Nc3ccc(OC[C@@H](C)N(C)C)cc3)nc2N)c1 [Example 63, (R)-[4-Amino-2-[4-(2-dimethylamino-propoxy)-phenylamino]-thiazol-5-yl]-(3-ethyl-phenyl)-methanone] | 2570 nM | 1900 nM | 80 nM |  | 623 nM |
| CCN1CCC(Oc2ccc(Nc3nc(N)c(C(=O)c4cccc(F)c4)s3)cc2)C1 (centres unmarked) [Example 42, [4-Amino-2-[4-(1-ethyl-pyrrolidin-3-yloxy)-phenylamino]-thiazol-5-yl]-(3-fluoro-phenyl)-methanone] | 298 nM | 496 nM | 57 nM |  | 859 nM |
| CN(C)CCOc1ccc(Nc2nc(N)c(C(=O)c3cccc(F)c3)s2)cc1 [Example 37, [4-Amino-2-[4-(2-dimethylamino-ethoxy)-phenylamino]-thiazol-5-yl]-(3-fluoro-phenyl)-methanone] | 126 nM | 892 nM | 32 nM |  | 520 nM |
| CCNCCOc1ccc(Nc2nc(N)c(C(=O)c3cccc(F)c3)s2)cc1 [Example 131, [4-Amino-2-[4-(2-ethylamino-ethoxy)-phenylamino]-thiazol-5-yl]-(3-fluoro-phenyl)-methanone] | 298 nM | 892 nM | 520 nM |  | 693 nM |
| CN1CCC[C@H]1COc1ccc(Nc2nc(N)c(C(=O)c3cccc(C4CC4)c3)s2)cc1 [Example 113, (S)-[4-Amino-2-[4-(1-methyl-pyrrolidin-2-ylmethoxy)-phenylamino]-thiazol-5-yl]-(3-cyclopropyl-phenyl)-methanone] | 3900 nM | 3340 nM | 62 nM |  | 1070 nM |
| Nc1nc(Nc2ccc(OC3CCNC3)cc2)sc1C(=O)c1cccc(C2CC2)c1 (centres unmarked) [Example 93, [4-Amino-2-[4-(pyrrolidin-3-yloxy)-phenylamino]-thiazol-5-yl]-(3-cyclopropyl-phenyl)-methanone; Compound With Acetic Acid] | 859 nM | 1200 nM | 42 nM |  | 2020 nM |
| CCc1cccc(C(=O)c2sc(Nc3ccc(OCCN(C)C)cc3)nc2N)c1 [Example 52, [4-Amino-2-[4-(2-dimethylamino-ethoxy)-phenylamino]-thiazol-5-yl]-(3-ethyl-phenyl)-methanone] | 3230 nM | 1210 nM | 27 nM |  | 526 nM |
| C[C@H](COc1ccc(Nc2nc(N)c(C(=O)c3cccc(F)c3)s2)cc1)N1CCCC1 [Example 41, (R)-[4-Amino-2-[4-(2-pyrrolidin-1-yl-propoxy)-phenylamino]-thiazol-5-yl]-(3-fluoro-phenyl)-methanone] | 435 nM | 1040 nM | 63 nM |  | 669 nM |
| CCN(CC)CCOc1ccc(Nc2nc(N)c(C(=O)c3cccc(SC)c3)s2)cc1 [Example 126, [4-Amino-2-[4-(2-diethylamino-ethoxy)-phenylamino]-thiazol-5-yl]-(3-methylsulfanyl-phenyl)-methanone] | 1650 nM | 6070 nM | 47 nM |  | 3970 nM |
| COc1cccc(C(=O)c2sc(Nc3ccc(OCCn4ccnc4)cc3)nc2N)c1 [Example 146, [4-Amino-2-[4-(2-imidazol-1-yl-ethoxy)-phenylamino]-thiazol-5-yl]-(3-methoxy-phenyl)-methanone] | 600 nM | 814 nM | 67 nM | 185 to 190 °C | 4190 nM |
| CN(C)CCOc1ccc(Nc2nc(N)c(C(=O)c3cccc(C4CC4)c3)s2)cc1 [Example 69, [4-Amino-2-[4-(2-dimethylamino-ethoxy)-phenylamino]-thiazol-5-yl]-(3-cyclopropyl-phenyl)-methanone] | 1780 nM | 2890 nM | 40 nM |  | 1050 nM |
| CCCc1cc(C(=O)c2sc(Nc3ccc(OCC(C)(C)N(C)C)cc3)nc2N)ccc1O [Example 108, [4-Amino-2-[4-(2-dimethylamino-2-methyl-propoxy)-phenylamino]-thiazol-5-yl]-(4-hydroxy-3-propyl-phenyl)-methanone; Compound With Acetic Acid] | 291 nM | 295 nM | 26 nM |  | 518 nM |
| Nc1nc(Nc2ccc(OCCN3CCCC3)cc2)sc1C(=O)c1cccc(F)c1 [Example 118, [4-Amino-2-[4-(2-pyrrolidin-1-yl-ethoxy)-phenylamino]-thiazol-5-yl]-(3-fluoro-phenyl)-methanone; Compound With Acetic Acid] | 248 nM | 889 nM | 62 nM |  | 517 nM |
| CCCc1cc(C(=O)c2sc(Nc3ccc(OC4CCCN(CC)C4)cc3)nc2N)ccc1O (centres unmarked) [Example 88, [4-Amino-2-[4-(1-ethyl-piperidin-3-yloxy)-phenylamino]-thiazol-5-yl]-(4-hydroxy-3-propyl-phenyl)-methanone; Compound With Acetic Acid] | 241 nM | 234 nM | 39 nM |  | 280 nM |
| Nc1nc(Nc2ccc(OCCN3CCCC3)cc2)sc1C(=O)c1ccc(O)c(F)c1 [Example 120, [4-Amino-2-[4-(2-pyrrolidin-1-ylethoxy)-phenylamino]-thiazol-5-yl]-(3-fluoro-4-hydroxy-phenyl)-methanone; Compound With Acetic Acid] | 422 nM | 781 nM | 38 nM |  | 1630 nM |
| CN(C)C(C)(C)COc1ccc(Nc2nc(N)c(C(=O)c3cccc(C4CC4)c3)s2)cc1 [Example 71, [4-Amino-2-[4-(2-dimethylamino-2-methyl-propoxy)-phenylamino]-thiazol-5-yl]-(3-cyclopropyl-phenyl)-methanone] | 3860 nM | 2110 nM | 39 nM |  | 2360 nM |
